Data on 10 molecules can be found in patent US11957759B1, “Rapidly accelerated fibrosarcoma (RAF) degrading compounds and associated methods of use” (Arvinas Operations, Inc., priority 2022, dated 2024).

The structures appear in SMILES notation. A value given as a limit tells only on which side of the number the result lay.

One test deals with T1, B-RAF V600E (Homo sapiens, UniProt P15056, V600E).
T1 construct: expressed in transfected cells; host or cells: T-Rex 293 cells (Invitrogen #R71007)
In words: Target protein degradation, assay A: T-Rex 293 cells, HA-B-RAF_V600E, 96 well format. It is filed as cell-based. Conditions: T-Rex 293 HA-B-RAF_V600E cells, 24 hours, Examples 1-82. In a few lines: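 T-Rex 293 cells stably expressing doxycycline-inducible HA-B-RAF V600E (1 ng/mL doxycycline) treated 24 h at 37 °C with compound, final 1 μM to 0.1 nM in 0.1% DMSO. Fixed, permeabilized cells immunostained for HA and imaged by high-content microscopy; DC50 and Dmax (% of control) reported.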

For another test, the target named is T2, B-RAF G466V (Homo sapiens, UniProt P15056, G466V).
T2 construct: expressed in transfected cells; host or cells: T-Rex 293 cells (Invitrogen #R71007)
In words: Target protein degradation, assay B: T-Rex 293 cells, HA-B-RAF_G466V, 96 well format. It is filed as cell-based. The conditions noted are these: T-Rex 293 HA-B-RAF_G466V cells, 24 hours, Examples 1-82. In a few lines: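 T-Rex 293 cells stably carrying doxycycline-inducible HA-B-RAF G466V (0.75 ng/mL doxycycline) treated 24 h at 37 °C with compound, 30 nM to 3 pM final, 0.1% DMSO. Fixed, permeabilised, anti-HA immunofluorescence quantified by high-content imaging; DC50 and Dmax (% of control) derived.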

In general, DC50 refers to the midpoint of the concentration-degradation curve. Broadly, the Dmax is the largest share of the target that was removed. Low readings indicate shallow degradation, high ones deep degradation.

T2 sequence (P15056 whole entry G466V): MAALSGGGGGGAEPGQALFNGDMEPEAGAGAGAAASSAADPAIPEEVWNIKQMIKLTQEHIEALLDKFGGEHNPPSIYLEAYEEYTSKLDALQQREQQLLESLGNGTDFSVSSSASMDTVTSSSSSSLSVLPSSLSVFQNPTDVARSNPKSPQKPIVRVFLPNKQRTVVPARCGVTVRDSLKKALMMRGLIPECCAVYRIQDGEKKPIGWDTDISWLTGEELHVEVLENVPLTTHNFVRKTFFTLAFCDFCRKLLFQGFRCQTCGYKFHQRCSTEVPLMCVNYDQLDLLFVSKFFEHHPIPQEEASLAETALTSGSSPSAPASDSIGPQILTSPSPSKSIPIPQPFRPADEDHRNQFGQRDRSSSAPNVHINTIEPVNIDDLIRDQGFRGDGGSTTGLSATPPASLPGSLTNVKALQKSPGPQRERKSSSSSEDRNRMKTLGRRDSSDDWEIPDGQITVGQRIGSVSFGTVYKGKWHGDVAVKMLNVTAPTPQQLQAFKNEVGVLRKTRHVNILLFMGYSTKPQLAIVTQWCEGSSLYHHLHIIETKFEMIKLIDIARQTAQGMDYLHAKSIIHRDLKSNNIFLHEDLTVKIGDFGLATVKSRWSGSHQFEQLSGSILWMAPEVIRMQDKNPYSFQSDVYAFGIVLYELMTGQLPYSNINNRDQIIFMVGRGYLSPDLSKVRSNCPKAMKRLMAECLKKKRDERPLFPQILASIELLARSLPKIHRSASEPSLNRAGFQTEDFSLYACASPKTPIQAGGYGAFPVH
T1 sequence (P15056 whole entry V600E): as the sequence (P15056 whole entry G466V) above, with V466G, V600E counted along it

On to `N#Cc1c(NS(=O)(=O)N2CC[C@@H](F)C2)ccc(F)c1Oc1ccc2ncn(-c3ccc(N4CCN(c5ccc6c(c5)C(=O)N(C5CCC(=O)NC5=O)C6=O)CC4)cc3)c(=O)c2c1` (stereo partly drawn) [Example 71, (3R)-N-(2-cyano-3-{[3-(4-{4-[2-(2,6-dioxopiperidin-3-yl)-1,3-dioxo-2,3-dihydro-1H-isoindol-5-yl]piperazin-1-yl}phenyl)-4-oxo-3,4-dihydroquinazolin-6-yl]oxy}-4-fluorophenyl)-3-fluoropyrrolidine-1-sulfonamide], for which the DC50 at B-RAF V600E was greater than 500 nM; at B-RAF G466V, greater than 30 nM.

Take `N#Cc1c(NS(=O)(=O)N2CC[C@@H](F)C2)ccc(F)c1Oc1ccc2ncn(-c3ccc(N4CCN(c5ccc(C(=O)NC6CCC(=O)NC6=O)c(F)c5)CC4)cc3)c(=O)c2c1` (stereo partly drawn) [Example 72, 4-[4-(4-{6-[2-cyano-6-fluoro-3-({[(3R)-3-fluoropyrrolidin-1-yl]sulfonyl}amino)phenoxy]-4-oxo-3,4-dihydroquinazolin-3-yl}phenyl)piperazin-1-yl]-N-(2,6-dioxopiperidin-3-yl)-2-fluorobenzamide]: the figures for the DC50 at B-RAF V600E and on B-RAF G466V were greater than 500 nM and greater than 30 nM, respectively.

In the case of `N#Cc1c(NS(=O)(=O)N2CC[C@@H](F)C2)ccc(F)c1Oc1ccc2ncn(-c3ccc(N4CCN(CC5CCN(c6ccc7c(c6F)CN([C@H]6CCC(=O)NC6=O)C7=O)CC5)CC4)cc3)c(=O)c2c1` [Example 73, (3R)—N-(2-cyano-3-{[3-(4-{4-[(1-{2-[(3S)-2,6-dioxopiperidin-3-yl]-4-fluoro-1-oxo-2,3-dihydro-1H-isoindol-5-yl}piperidin-4-yl)methyl]piperazin-1-yl}phenyl)-4-oxo-3,4-dihydroquinazolin-6-yl]oxy}-4-fluorophenyl)-3-fluoropyrrolidine-1-sulfonamide], at B-RAF V600E, the 50% degradation concentration (DC50) is 5 to 50 nM and the greatest degradation seen (Dmax) is 35 to 70%. Also, at B-RAF G466V, the DC50 lay in the range of 1 to 10 nM and the maximal degradation (Dmax) was 35 to 70%.

On B-RAF V600E, `N#Cc1c(NS(=O)(=O)N2CC[C@@H](F)C2)ccc(F)c1Oc1ccc2ncn(-c3ccc(N4CCN(CC5CCN(c6cccc7c6ccn7C6CCC(=O)NC6=O)CC5)CC4)cc3)c(=O)c2c1` (stereo partly drawn) [Example 74, (3R)—N-{2-cyano-3-[(3-{4-[4-({1-[1-(2,6-dioxopiperidin-3-yl)-1H-indol-4-yl]piperidin-4-yl}methyl)piperazin-1-yl]phenyl}-4-oxo-3,4-dihydroquinazolin-6-yl)oxy]-4-fluorophenyl}-3-fluoropyrrolidine-1-sulfonamide] showed a half-maximal degradation concentration (DC50) of 50 to 500 nM and a Dmax of 35 to 70%. At B-RAF G466V, the DC50 lay in the range of 1 to 10 nM and the Dmax was no more than 35%.

On B-RAF V600E, `N#Cc1c(NS(=O)(=O)N2CC[C@@H](F)C2)ccc(F)c1Oc1ccc2ncn(-c3ccn(C4CCN(CC5CCN(c6ccc7c(c6)CN(C6CCC(=O)NC6=O)C7=O)CC5)CC4)n3)c(=O)c2c1` (stereo partly drawn) [Example 75, (3R)—N-{2-cyano-3-[(3-{1-[1-({1-[2-(2,6-dioxopiperidin-3-yl)-1-oxo-2,3-dihydro-1H-isoindol-5-yl]piperidin-4-yl}methyl)piperidin-4-yl]-1H-pyrazol-3-yl}-4-oxo-3,4-dihydroquinazolin-6-yl)oxy]-4-fluorophenyl}-3-fluoropyrrolidine-1-sulfonamide] gave a DC50 of 50 to 500 nM and a Dmax of 35 to 70%. In addition, at B-RAF G466V, the DC50 fell in the range of 1 to 10 nM and the greatest degradation seen (Dmax) is no more than 35%.

On B-RAF V600E, `N#Cc1c(NS(=O)(=O)N2CC[C@@H](F)C2)ccc(F)c1Oc1ccc2ncn(-c3ccc(N4CCN(CC5CN(c6ccc7c(c6)CN([C@H]6CCC(=O)NC6=O)C7=O)C5)CC4)cc3)c(=O)c2c1` [Example 76, (3R)—N-(2-cyano-3-{[3-(4-{4-[(1-{2-[(3S)-2,6-dioxopiperidin-3-yl]-1-oxo-2,3-dihydro-1H-isoindol-5-yl}azetidin-3-yl)methyl]piperazin-1-yl}phenyl)-4-oxo-3,4-dihydroquinazolin-6-yl]oxy}-4-fluorophenyl)-3-fluoropyrrolidine-1-sulfonamide] yielded a DC50 of 5 to 50 nM and a Dmax of 35 to 70%. On B-RAF G466V, this molecule returned a DC50 of 1 to 10 nM and a Dmax of no more than 35%.

On to `N#Cc1c(NS(=O)(=O)N2CC[C@@H](F)C2)ccc(F)c1Oc1ccc2ncn(-c3ccc(N4CCN(CC5CCN(c6ccc7c(c6)CN([C@H]6CCC(=O)NC6=O)C7=O)CC5)CC4)cc3)c(=O)c2c1` [Example 77, (3R)—N-(2-cyano-3-{[3-(4-{4-[(1-{2-[(3S)-2,6-dioxopiperidin-3-yl]-1-oxo-2,3-dihydro-1H-isoindol-5-yl}piperidin-4-yl)methyl]piperazin-1-yl}phenyl)-4-oxo-3,4-dihydroquinazolin-6-yl]oxy}-4-fluorophenyl)-3-fluoropyrrolidine-1-sulfonamide], for which, at B-RAF V600E, the 50% degradation concentration (DC50) is 50 to 500 nM and the Dmax was 35 to 70%. At B-RAF G466V, this molecule showed a 50% degradation concentration (DC50) of 1 to 10 nM and a Dmax of 35 to 70%.

At B-RAF V600E, `Cn1c(=O)n(C2CCC(=O)NC2=O)c2ccc(N3CCC(CN4CCN(c5ccc(-n6cnc7ccc(Oc8c(F)ccc(NS(=O)(=O)N9CC[C@@H](F)C9)c8C#N)cc7c6=O)cc5)CC4)CC3)cc21` (stereo partly drawn) [Example 78, (3R)—N-{2-cyano-3-[(3-{4-[4-({1-[1-(2,6-dioxopiperidin-3-yl)-3-methyl-2-oxo-2,3-dihydro-1H-1,3-benzodiazol-5-yl]piperidin-4-yl}methyl)piperazin-1-yl]phenyl}-4-oxo-3,4-dihydroquinazolin-6-yl)oxy]-4-fluorophenyl}-3-fluoropyrrolidine-1-sulfonamide] came in with a DC50 of 5 to 50 nM and a Dmax of 35 to 70%. At B-RAF G466V, this molecule had a half-maximal degradation concentration (DC50) of 1 to 10 nM and a Dmax of 35 to 70%.

In the case of `N#Cc1c(NS(=O)(=O)N2CC[C@@H](F)C2)ccc(F)c1Oc1ccc2ncn(-c3ccc(N4CCC(CN5CCC(c6ccc7c(c6F)CN(C6CCC(=O)NC6=O)C7=O)CC5)CC4)cc3)c(=O)c2c1` (stereo partly drawn) [Example 79, (3R)—N-{2-cyano-3-[(3-{4-[4-({4-[2-(2,6-dioxopiperidin-3-yl)-4-fluoro-1-oxo-2,3-dihydro-1H-isoindol-5-yl]piperidin-1-yl}methyl)piperidin-1-yl]phenyl}-4-oxo-3,4-dihydroquinazolin-6-yl)oxy]-4-fluorophenyl}-3-fluoropyrrolidine-1-sulfonamide], on B-RAF V600E, the DC50 was 50 to 500 nM and the maximal degradation (Dmax) was in the range of 35 to 70%. Besides, on B-RAF G466V, the DC50 was no more than 1 nM and the maximal degradation (Dmax) was in the range of 35 to 70%.

At B-RAF V600E, `N#Cc1c(NS(=O)(=O)N2CC[C@@H](F)C2)ccc(F)c1Oc1ccc2ncn(-c3ccc(N4CCC(OC5CCN(c6ccc7c(c6)CN(C6CCC(=O)NC6=O)C7=O)CC5)CC4)cc3)c(=O)c2c1` (stereo partly drawn) [Example 82, (3R)—N-{2-cyano-3-[(3-{4-[4-({1-[2-(2,6-dioxopiperidin-3-yl)-1-oxo-2,3-dihydro-1H-isoindol-5-yl]piperidin-4-yl}oxy)piperidin-1-yl]phenyl}-4-oxo-3,4-dihydroquinazolin-6-yl)oxy]-4-fluorophenyl}-3-fluoropyrrolidine-1-sulfonamide] showed a 50% degradation concentration (DC50) of 50 to 500 nM and a Dmax of 35 to 70%. On B-RAF G466V, this molecule yielded a DC50 of 1 to 10 nM and a Dmax of no more than 35%.
